According to patent publication US20160143862A1, “METHOD OF USING BETA-IONONE TO TREAT AND PREVENT DISEASE INDUCED BY PROPIONIBACTERIUM ACNES” (NATIONAL TAIWAN NORMAL UNIVERSTITY, priority 2014, published 2016):

How the values were obtained:
[1] = system: P. acnes-induced IL-8 production by THP-1 cells; test: inhibition of P. acnes-induced IL-8 production by THP-1 cells (enzyme immunoassay); format: cell-based, Human; conditions: 10, 20, 50 μM; P. acnes MOI 75; 24-h incubation; p<0.001
Procedure: Propionibacterium acnes (BCRC 10723, purchased from the Bioresource Collection and Research Center, Hsinchu, Taiwan) was cultured in a brain heart infusion (BHI) broth. The bacteria were cultured in an anaerobic atmosphere using BBL GasPak systems.

[2] = system: Propionibacterium acnes-induced ear swelling in ICR mice; test: P. acnes-induced mouse ear inflammation (ear thickness, biopsy weight, redness, neutrophil infiltration); format: in vivo
Description: In the animal experiment of this embodiment, four-week-old male […] were purchased from the Experimental Animal Center of the National Taiwan University. After 1 week of adaptation, the mice were randomly divided into three groups of six animals each. The three groups of mice are, namely a blank control group of mice injected with a phosphate buffer solution (hereinafter referred to as “PBS-control”), an experimental group of mice injected with Propionibacterium acnes (hereinafter referred to as “P. acnes group”), and an experimental group of mice injected with Propionibacterium acnes and beta-ionone (hereinafter referred to as “P. acnes+beta-ionone group”). Mice were housed in plastic cages, under standard temperature-controlled conditions with a 12 h/12 h light-dark cycle and free access to food and water throughout the experiments. The experiments are each carried out by following the steps described below, so as to inject 10 µL of liquid (phosphate buffer solution (PBS), P. acnes, or P. acnes+beta-ionone) into the mice' ears, respectively. […] Mercy killing is carried out to all the mice 24 hours after the aforesaid injections, and then the ear's swelling induced by P. acnes was quantified as the percentage increases in the thickness and weight of the left ear biopsy. The thickness of the mice's ears is measured with a micrometer caliper. […]

[3] = system: human monocytic THP-1 cells; test: cytotoxicity of beta-ionone on THP-1 cells (cellular viability)
Procedure: Human monocytic THP-1 cells (BCRC 60430, purchased from the Bioresource Collection and Research Center, Hsinchu, Taiwan) were cultured in RPMI 1640 medium and supplemented with 10% of fetal bovine serum, 0.05 mM of 2-mercaptoethanol, and 100 units/mL of penicillin G sodium, 100 μg/mL of streptomycin sulfate, and 250 ng/mL of amphotericin B at 37° C. in a 5% CO2 humidified environment.
THP-1 cells are seeded at 2×10^5 cells/well in a 96-well plate with FBS-free RMPI 1640 medium, and are stimulated with Propionibacterium acnes (multiplicity of infection=75) alone or in combination with various concentrations of 10, 20, 50 μM of beta-ionone for a 24-h incubation.

CC(=O)/C=C/C1=C(C)CCCC1(C)C [beta-ionone, (3E)-4-(2,6,6-trimethylcyclohex-1-en-1-yl)but-3-en-2-one]
inhibitory effect on P. acnes-induced IL-8 production by THP-1 cells [1]: marked inhibitive effect
effect on redness, neutrophils infiltration and swelling (ear thickness and biopsy weight) caused by P. acnes ([2]; 50 μg/10 μL injected into ear with 6×10^7 CFU P. acnes, 24 hours, p<0.01, p<0.001): effective in reducing the redness, neutrophils infiltration, and swelling
redness and swelling of right ears (P. acnes + beta-ionone) versus left ears (P. acnes) ([2]; 50 μg/10 μL injected into ear, 24 hours after injection, FIG. 9): significantly abated redness and swelling
cytotoxic effect on human monocytic THP-1 cells ([3]; beta-ionone at 10, 20, 50 μM): does not have any cytotoxic effect
concentration with cytotoxic effect on THP-1 cells ([3]; cellular viability compared with untreated control, p<0.05, p<0.001): ≥ 100 µM
